Several values for one entry are separate records, joined by “and”; a condition that tells them apart may be missing. Identical values can stand only once. Like-named read-outs stand apart in the source and are kept apart here.
What was measured:
[1] = tested on: rat skeletal myoblasts (L6-cells); parameters: method as in PMID 22331812, PMID 24080104, PMID 21624443, PMID 22396915; conditions: cytotoxicity; previously reported compounds included for comparison; cited from earlier work
[2] = tested on: T. b. rhodesiense STIB 900 bloodstream forms; parameters: method as in PMID 22331812, PMID 24080104, PMID 21624443, PMID 22396915; conditions: cited from earlier work; for SI (Selectivity Index): IC50 against L6 cells divided by IC50 against STIB 900 strain, previously reported compounds; for IC50: previously reported compounds included for comparison, compound 9 tested once, read-out: T. brucei STIB 900 IC50
[3] = tested on: rat skeletal myoblasts (L6-cells); assay: cells; assay type: cell-based; conditions: for IC50: read-out: L6 cells IC50
Description: The cytotoxicity assay was performed with rat skeletal myoblasts (L6-cells) seeded in 100 μL RPMI 1640 in 96-well micro titre plates, using the Alamar Blue assay described above. After 24 h the medium was removed and replaced by 100 μL of fresh RPMI 1640 with serial threefold drug dilution. Podophyllotoxin (purity > 95%, Sigma-Aldrich) was used as a reference drug. After 70 h of incubation under a humidified 5% CO2 atmosphere, 10 μL of the Alamar blue marker (see above) was added to all wells. The plates were incubated for an additional 2 h. A Spectramax Gemini XS micro plate fluorescence reader (Molecular Devices) was used to read the plates using an excitation wavelength of 536 nm and an emission wavelength of 588 nm. The IC50s were calculated from the sigmoidal growth inhibition curves using Softmax Pro software (Molecular Devices).

[4] = tested on: T. b. rhodesiense STIB 900 bloodstream forms; assay: In vitro antitrypanosomal Alamar Blue assay; assay type: cell-based, Trypanosoma brucei rhodesiense; conditions: for SI (Selectivity Index): IC50 against L6 cells divided by IC50 against STIB 900 strain; for IC50: read-out: T. brucei STIB 900 IC50
Description: Evaluation of in vitro antiprotozoal activity against T. b. rhodesiense was done using the Alamar Blue assay to determine IC50s as previously described. Serial threefold dilution were prepared in 96-well micro titre plates, and 4000 T. b. rhodesiense STIB 900 bloodstream forms in 50 μL were added to each well except for the negative controls. Melarsoprol (Arsobal®, purity > 95%, Sanofi-Aventis, Meyrin, Switzerland) was used as reference drugs. […] The IC50 values were calculated from the sigmoidal growth inhibition curves using Softmax Pro software (Molecular Devices).

[5] = Rattus norvegicus, L6, 70 h, cytotoxicity, 70 h incubation, average of three independent assays
[6] = Trypanosoma brucei, 70 h, 70 h incubation, average of three independent assays
[7] = 70 h incubation, average of three independent assays
[8] = Rattus norvegicus, L6, cytotoxicity, 70 h incubation, average of three independent assays
[9] = Trypanosoma brucei, 70 h incubation, average of three independent assays

Structure (SMILES)	IC50 [3, 5] [µM]	SI (Selectivity Index) [4]	IC50 [4, 6] [µM]	other results
C=C1C(=O)O[C@H]2[C@H]1CC/C(C)=C/CC[C@@]1(C)O[C@@H]21 [Compound 8, parthenolide]				IC50 [1]: 5.2 ± 0.9 µM; SI (Selectivity Index) [2]: 6.5; IC50 [2]: 0.8 ± 0.5 µM
CC(=O)OC1(C)CCC2C(CN3CCOCC3)C(=O)OC2C2=C(C)C(=O)CC21 (centres unmarked) [Compound 22, Morpholine adduct]	7.4 ± 0.8	10.3	0.7 ± 0.1	
C=C1C(=O)O[C@@H]2/C=C(\CO)CC/C=C(\C)C[C@H](OC(=O)C(=C)[C@H](O)CO)[C@@H]12 [Compound 3, Cnicin]	4.2 ± 0.9	10	0.4 ± 0.1	
CC1C(=O)CCC2(C)CCC3C(CN4CCOCC4)C(=O)OC3C12 (centres unmarked) [Compound 23, Morpholine adduct]	65.6 ± 9.7	5.6	11.8 ± 2.7	
C=C(CO)C(=O)O[C@H]1C/C(C)=C\CC/C(CO)=C\[C@H]2OC(=O)C(=C)[C@H]12 [Compound 2, Onopordopicrin]				IC50 [1]: 3.1 ± 1.1 µM; SI (Selectivity Index) [2]: 8.2; IC50 [2]: 0.4 ± 0.01 µM
CC1=C2C3OC(=O)C(CN4CCN(c5ccccc5Cl)CC4)C3CCC2(C)C=CC1=O (centres unmarked) [Compound 31, 1-(2-Chlorophenyl)piperazine adduct]	> 20	3.1	> 5	IC50 ([3]; cytotoxicity, 70 h incubation, average of three independent assays): 21.8 ± 2.7 µM; IC50 [4, 7]: 7 ± 2.2 µM
CC12CCC3C(CNCCc4ccc(O)cc4)C(=O)OC3C13C=CC(=O)C23C (centres unmarked) [Compound 30, Tyramine adduct]	31.8 ± 1.3	3.2	9.9 ± 1.6	
CCN(CC)CC1C(=O)OC2C3=C(C)C(=O)CC3C(C)(O)CCC12 (centres unmarked) [Compound 21, Deacylated diethylamine adduct]	9.4 ± 2.2	2.2	4.2 ± 0.8	
CC(=O)OC1(C)CCC2C(CNCCc3ccc(Cl)cc3)C(=O)OC2C2=C(C)C(=O)CC21 (centres unmarked) [Compound 34, 2-(4-Chlorophenyl)ethylamine adduct]	22.5 ± 1.6	4.2	5.4 ± 1.1	
C=C1C(=O)OC2C1CCC(=C)C1CC(OC(C)=O)C(=C)C12 (centres unmarked) [Compound 9, Zaluzanin D]				IC50 [1]: 15.6 µM; SI (Selectivity Index) [2]: 1.4; IC50 [2]: 10.8 µM
C=C1CC(O)C2C(CN(C)C)C(=O)OC2C2C(=C)C(O)CC12 (centres unmarked) [Compound 20, Deacylcynaropicrin dimethylamine adduct]	8.6 ± 1.3	2.5	3.6 ± 1	
CC1=C2C3OC(=O)C(C)C3CCC(C)(O)C2CC1O (centres unmarked) [Compound 15, 3-Hydroxyisophotosantonin]	353 ± 4	6.4	54.7 ± 8	
CC1C(=O)OC2C1CCC1(C)C=CC(=O)C(C)C21 (centres unmarked) [Compound 18]		2.6		IC50 [3, 8]: 34 ± 1.5 µM; IC50 [4, 9]: 12.9 ± 2.4 µM
CC1=C2C3OC(=O)C(CNCCc4ccc(O)cc4)C3CCC2(C)C=CC1=O (centres unmarked) [Compound 28, Tyramine adduct]	87.9 ± 2.2	6.5	13.4 ± 1.1	
C=C1C(=O)O[C@@H]2[C@H]1CC[C@H](C)[C@]1(CCC(=O)O1)[C@@]2(C)O [Compound 11, Psilostachyin A]	6.9 ± 1.8	1.2	5.8 ± 0.7	
C=C1CC(O)C2C(=C)C(=O)OC2C2C(=C)C(O)CC12 (centres unmarked) [Compound 5, Deacylcynaropicrin]				IC50 [1]: 19 µM and 19.2 µM; fold lower cytotoxicity as compared to 1 ([3]; compared to compound 1): nine; fold lower antitrypanosomal activity as compared to 1 ([4]; compared to compound 1): 16 fold; SI (Selectivity Index) [2]: 3.9; IC50 [2]: 4.9 ± 0.34 µM
C=C1CC[C@H]2C(=C)CC[C@H]3C(=C)C(=O)O[C@@H]3[C@@H]12 [Compound 6, dehydrocostuslactone]				IC50 [1]: 8.3 ± 1.9 µM; SI (Selectivity Index) [2]: 1.9; IC50 [2]: 4.4 ± 1.2 µM

Structure (SMILES)	IC50 [3, 5] [µM]	SI (Selectivity Index) [4]	IC50 [4, 6] [µM]	other results
CC12CCC3C(CNCCc4ccc(Cl)cc4)C(=O)OC3C13C=CC(=O)C23C (centres unmarked) [Compound 33, 2-(4-Chlorophenyl)ethylamine adduct]	27.6 ± 6.7	2.7	10.2 ± 3.2	
CC(=O)OC1(C)CCC2C(C)C(=O)OC2C2=C(C)C(=O)CC21 (centres unmarked) [Compound 16]	> 292	>6.4	46	IC50 [4, 7]: 45.7 ± 5 µM
C=C[C@@]12COC(=O)C(=C)[C@@H]1[C@H]1OC(=O)C(=C)[C@@H]1[C@@H](OC(=O)C(=C)CO)C2 [Compound 4, Vernodalin]	0.6 ± 0.02	3	0.2 ± 0.01	
Nc1nc(N)nc(Nc2ccc([As]3SCC(CO)S3)cc2)n1 (centres unmarked) [Melarsoprol, reference compound]		2170		IC50 ([3]; Rattus norvegicus, L6, 70 h): 21.7 ± 8.7 µM; IC50 ([4]; Trypanosoma brucei, 70 h): 0.01 ± 0.01 µM
CC1C(=O)C=CC2(C)CCC3C(CNCCc4ccc(O)cc4)C(=O)OC3C12 (centres unmarked) [Compound 26, Tyramine adduct]	> 236	>35.0	6.7 ± 1.3	
COc1cc([C@@H]2c3cc4c(cc3[C@H](O)[C@H]3COC(=O)[C@H]23)OCO4)cc(OC)c1OC [Podophyllotoxin, reference compound]				IC50 ([3]; Rattus norvegicus, L6, 70 h): 0.02 ± 0.01 µM
C=C1C(=O)O[C@@H]2/C=C(/C)[C@@H](O)C/C=C(\C)C[C@H](OC(=O)/C(C)=C\C)[C@@H]12 [Compound 14, Nobilin]				IC50 ([3]; Rattus norvegicus, L6, 70 h): 10.5 ± 0.1 µM
C=C1C(=O)O[C@@H]2/C=C(\C)CC/C=C(\C)CC[C@@H]12 [Compound 7, costunolide]				IC50 [1]: 7.7 ± 1.3 µM; SI (Selectivity Index) [2]: 5.9; IC50 [2]: 1.3 ± 0.4 µM
CC12CCC3C(CN4CCOCC4)C(=O)OC3C13C=CC(=O)C23C (centres unmarked) [Compound 25, Morpholine adduct]	9.9 ± 1.6	3.8	2.6 ± 0.5	
CC1=C2[C@H]3OC(=O)[C@@H](C)[C@@H]3CC[C@@]2(C)C=CC1=O [Compound 17, Santonin]		>8.8		IC50 [3, 8]: > 366 µM; IC50 [4, 9]: 41.5 ± 0.8 µM
CC1C(=O)CCC2(C)CCC3C(CNCCc4ccc(O)cc4)C(=O)OC3C12 (centres unmarked) [Compound 27, Tyramine adduct]	45.6 ± 3.2	4	13 ± 1.4	
C=C1C(=O)OC2C3=C(C)C(=O)CC3C(C)(OC(C)=O)CCC12 (centres unmarked) [Compound 10]	4.3 ± 0.5	7.6	0.7	IC50 [4, 7]: 0.6 ± 0.2 µM
CC1C(=O)C=CC2(C)CCC3C(CN4CCOCC4)C(=O)OC3C12 (centres unmarked) [Compound 24, Morpholine adduct]	31.3 ± 1.4	13.3	2.4 ± 0.7	
CC1=C2C3OC(=O)C(CNCc4ccc(Cl)cc4)C3CCC2(C)C=CC1=O (centres unmarked) [Compound 32, 4-Chlorobenzylamine adduct]	34.8 ± 1.2	3.4	10.6 ± 1.5	
CC(=O)OC1(C)CCC2C(CNCCc3ccc(O)cc3)C(=O)OC2C2=C(C)C(=O)CC21 (centres unmarked) [Compound 29, Tyramine adduct]	22.1 ± 4	3.3	6.6 ± 0.7	
C=C1C(=O)O[C@@H]2/C=C(\C)CC/C=C(\C)C[C@@H](OC(=O)/C(=C/CO)CO)[C@@H]12 [Compound 13, Eupatoriopicrin]				IC50 [1]: 1.6 ± 0.1 µM; SI (Selectivity Index) [2]: 1.3; IC50 [2]: 1.2 ± 0.2 µM
